Data set [1] deals with rats. The data set is described as follows: Rat Tail Immersion (noxious thermosensation, 55° C. water bath). The class given is in vivo. Particulars: morphine 6 mg/kg i.p. in saline, relative to vehicle control. Here is the method:
(iii) Rat Tail Immersion Protocol:
Compounds were tested for their effects on noxious thermosensation using the tail immersion assay. Testing was performed one hour following oral administration of 100 μmol/kg of the compound in 10% ethanol/20% Tween-80/70% PEG-400 (2 mL/kg). Mophine (6 mg/kg) was administered interperitoneally (i.p.) using saline (2 mL/kg) as the vehicle. For testing, a circulating water bath was heated to 55° C. Thirty to sixty minutes post dosing, the rats were handled for a few seconds to calm them down and then cupped with their back against the testers hand at a slight angle with head facing away from tester. With rat in one hand and a 0.01 second stopwatch in the other hand, the tail was quickly immersed 6-8 cm in water bath or to a distance leaving 2-3 cm of tail out of water. The timer was started simultaneously. […] This response latency (in seconds) was recorded. Process was repeated 3 times with 3-4 minutes between readings for a final average.
For a given compound, a percent increase in the average response latency (in seconds) for tail withdrawal relative to a vehicle control was determined % increase=[(tc−tv)/tv]×100% tc=response time (in seconds) with oral dosing of compounds tv=response time (in seconds) with oral dosing of vehicle […]
Table 1 reports the % increase in tail withdrawal latency measured for the compounds tested. […]

Data set [2] has as its target T1, human TRPV1 (Homo sapiens, UniProt Q8NER1).
T1 construct: expressed in transfected cells
Nature of the data set: Capsaicin Activation Assay (FLIPR intracellular Ca2+, recombinant HEK293 cells). Type of data set: cell-based. Particulars: recombinant HEK293 cells expressing hTRPV1; 50 nM capsaicin; read-out: human TRPV1 capsaicin IC50.

Data set [3] concerns the target T1, human TRPV1. The data set is described as follows: Acid Activation Assay (pH 5.0, FLIPR intracellular Ca2+, recombinant HEK293 cells). Type of data set: cell-based. Particulars: percentage of maximal pH 5.0-induced response remaining; HEK293 hTRPV1; max concentration 37.5 μM. A digest of the protocol:
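HEK293 cells stably expressing recombinant hTRPV1 were loaded with calcium dye for 90-120 min at 25° C and pre-treated with compound for 3 min before a pH 5.0 (DPBS/MES) challenge. Peak FLIPR fluorescence over baseline is given as percentage of the maximal pH 5.0-induced response.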

Data set [4] concerns rats. The data set is described as follows: Rat Acute Capsaicin-Induced Flinching Behavior. The class given is in vivo. The conditions noted are these: 100 μmol/kg oral, capsaicin 2.5 μg one hour after compound, five minute observation. On the procedure:
(iv) Rat Acute Capsaicin-Induced Flinching Behavior
Rats were placed in individual observation cages. Following an acclimation period of 30 minutes, selected compounds were administered orally at a dose of 100 μmol/kg orally in a vehicle (10% ethanol/20% Tween 80/70% polyethylene glycol-400) at a volume of 2 mL/kg. One hour after administration of the compound, 2.5 μg of capsaicin in a 10 μL solution of 10% ethanol/90% hydroxypropyl-β-cyclodextrin was injected subcutaneously into the dorsal aspect of the right hind paw. The observation cage was then suspended above mirrors in order to facilitate observation. […] The number of flinching behaviors of the injured paw was recorded during the five minute observation period (Gilchrist, H. D.; Allard, B. L.; Simone, D. A.; Enhanced withdrawal responses to heat and mechanical stimuli following intraplantar injection of capsaicin in rats. Pain, 1996, 67, 179-188). The percent reduction in the number of flinching behaviors produced from oral administration of the test compounds relative to control-treated animals (% effect) is reported in Table 2.

Data set [5] concerns rats. Nature of the data set: Sodium Iodoacetate-Induced Knee Joint Osteoarthritic Pain Model (hind limb grip force). Type of data set: in vivo. The conditions noted are these: rat; 100 μmol/kg po single dose; 1 hour after administration; 20 days after sodium iodoacetate; read-out: % effect (% return to normalcy of hind limb grip force). On the procedure: (v) Sodium Iodoacetate-Induced Knee Joint Osteoarthritic Pain Model
Unilateral knee joint osteoarthritis was induced in the rats by a single intra-articular (i.a.) injection of sodium iodoacetate (3 mg in 0.05 mL sterile isotonic saline) into the right knee joint cavity under light isoflurane anesthesia using a 26G needle. […] Pain behavioral assessment of hind limb grip force was conducted by recording the maximum compressive force exerted on the hind limb strain gauge setup, in a commercially available grip force measurement system (Columbus Instruments, Columbus, Ohio). The grip force data was converted to a maximum hindlimb cumulative compressive force (CFmax) (gram force)/kg body weight for each animal. The analgesic effects of test compounds were determined 20 days following the i.a. injection of sodium iodoacetate. The vehicle control group for each compound being tested was assigned 0% whereas the age matched naïve group was assigned as being 100% (normal). The % effect for each dose group was then expressed as % return to normalcy compared to the naïve group. Test compounds were administered orally in 10% ethanol/20% Tween 80/70% polyethylene glycol-400 vehicle at a volume of 2 mL/kg. The assessment of the analgesic effects of test compounds was made 1 hour following oral administration. The assessment of the analgesic effects of test compounds can be made following a single dose or following repeated administration wherein the frequency of dosing is 1 to 2 times daily. The duration of such repeated daily dosing may last for any time greater than one day. A typical duration of repeated daily dosing is about 5 days to about 12 days.

T1 sequence (Q8NER1 whole entry): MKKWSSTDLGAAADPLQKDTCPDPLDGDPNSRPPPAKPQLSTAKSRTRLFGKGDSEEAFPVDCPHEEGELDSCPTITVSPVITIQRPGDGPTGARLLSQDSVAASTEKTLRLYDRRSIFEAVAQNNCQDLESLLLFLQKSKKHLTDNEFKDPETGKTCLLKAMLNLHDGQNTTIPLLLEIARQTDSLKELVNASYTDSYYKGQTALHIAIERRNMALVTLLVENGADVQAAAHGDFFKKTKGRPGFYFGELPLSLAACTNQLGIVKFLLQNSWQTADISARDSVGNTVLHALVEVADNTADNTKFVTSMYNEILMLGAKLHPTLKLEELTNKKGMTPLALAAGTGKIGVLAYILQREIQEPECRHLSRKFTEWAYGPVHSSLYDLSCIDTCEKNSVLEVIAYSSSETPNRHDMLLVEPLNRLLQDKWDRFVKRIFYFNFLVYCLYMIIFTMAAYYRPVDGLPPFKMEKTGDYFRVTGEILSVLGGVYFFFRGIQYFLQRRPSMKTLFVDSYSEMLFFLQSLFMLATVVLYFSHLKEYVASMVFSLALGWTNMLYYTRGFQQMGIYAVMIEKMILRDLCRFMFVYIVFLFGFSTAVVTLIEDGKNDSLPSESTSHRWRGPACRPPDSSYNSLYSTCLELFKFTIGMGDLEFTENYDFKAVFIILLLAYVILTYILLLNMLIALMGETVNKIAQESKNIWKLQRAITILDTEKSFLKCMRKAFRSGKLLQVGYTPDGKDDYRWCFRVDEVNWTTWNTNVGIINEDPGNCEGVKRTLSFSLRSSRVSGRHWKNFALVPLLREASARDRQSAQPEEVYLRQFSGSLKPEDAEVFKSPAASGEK

For `CN1CC[C@]23c4c5ccc(O)c4O[C@H]2[C@@H](O)C=C[C@H]3[C@H]1C5` [Morphine], the “% Increase in Tail Withdrawal Latency” value in the data set with rats [1] is “+++ (greater than or equal to 25% increase)”.
As a reminder, the IC50 is the concentration that gives 50% inhibition. With `CC1(C)C[C@@H](NC(=O)Nc2cccc3c2C[C@@H](O)C3)c2ccc(F)c(Cl)c2O1` [Example 36, 1-[(4R)-8-chloro-7-fluoro-2,2-dimethyl-3,4-dihydro-2H-chromen-4-yl]-3-[(2S)-2-hydroxy-2,3-dihydro-1H-inden-4-yl]urea], the IC50 on human TRPV1 [2] came to 26 nM. Besides, on human TRPV1 [3], the “human TRPV1 H+ (max % remain)” value is 32%. Moreover, in the data set on rats [4], the “% effect (percent reduction in number of flinching behaviors relative to control-treated animals)” value was found to be 71%. Further, the inhibition in vivo at 100 µmol/kg in the data set on rats [5] is 46%.

The record behind these values is patent US8859584B2, “TRPV1 antagonists” (AbbVie Inc., priority 2011, dated 2014).
